Reference: patent US20250032651A1, “[177LU] LUTETIUM-PSMA I&T COMPOSITION AND DOSIMETRY, KIT, METHOD OF MAKING, AND METHOD OF USING THEREOF” (Curium US LLC, priority 2022, published 2025)
Values joined by “and” are separate entries in the source; they are usually repeats but may differ in a detail not shown here. Equal values may be shown once.

Test: Normal organ dosimetry Cycle 1: SPECT/CT, TIACs, OLINDA 2.2.3 absorbed radiation dose
Format: in vivo, human
Settings: individual patients/doses
Description: This Example presents the biodistribution, dosimetry, and pharmacokinetics (PK) results of a PK/Dosimetry sub-study performed as part of a Phase III trial. Twenty-seven (27) patients were administered a target activity of 7.4±10% GBq of ^177Lu-PSMA-I&T and underwent single photon emission computed tomography (SPECT)/computed tomography (CT) imaging at four timepoints (4 h, 24 h, 48 h, and 168 h). Image data was analysed to compute time-activity curves (TACs) and subsequently time-integrated activity coefficients (TIACs) in each organ of interest and in organs showing appreciable and meaningful ^177Lu-PSMA-I&T activity. Organ Level Internal Dose Assessment (OLINDA 2.2.3) was used to compute organ and whole body absorbed radiation doses for each patient.
All participating sites underwent a rigorous site setup process during which all dose calibrators, scanners, and gamma counters used in the sub-study were calibrated. Sites were allowed to enroll patients in the sub-study only after the completion and approval of all site setup processes by Invicro. Patients underwent SPECT/CT imaging, with anatomical coverage typically extending from the salivary glands to the pelvis, following the administration of a targeted 7.4±10% GBq of ^177Lu-PSMA-I&T at cycle 1. SPECT/CT imaging was performed at four timepoints: 4 h, 24 h, 48 h, and 168 h post-injection. Additionally, a subset of patients imaged at Cycle 1 (16 out of 27), were also imaged at Cycle 3 (Table 2).
The imaging data was analyzed using Invicro's VivoQuant software, a validated software used in a 21 CFR § 11-compliant workflow. The general quantification approach was based on the principles detailed in the Medical Internal Radiation Dose (MIRD) Pamphlet No. 16, No 23, and No 26 as appropriate.
Volume of interest (VOI) (kidneys, bladder, liver, lumbar vertebrae L2-L4, lacrimal glands, salivary glands [parotid and submandibular glands], and whole body) were delineated on each dataset by a trained image analyst. […] Organs were segmented either by drawing the entire contour of the organ, or by placing a sphere in a representative region of the organ and then multiplying by the organ's effective mass (based on patient's height and weight). Segmentation methods for each organ are specified in Table 3 and were consistently applied to each patient.
Clearance of the radiopharmaceutical was derived from a data-appropriate fit of each organ's TAC. Depending on the TAC's shape, the data was fitted with the sum of one, two, or three exponentials, or using a rise and fall model. Fitting was performed with in-house Python software. TIACs were calculated through analytical integration of the curve fit extrapolated to infinity. […] A whole-body TAC was derived from delineating the imaged body. The remainder activity was determined by subtracting the cumulative organ TIACs from the whole body TIAC.
Organ TIACs were input into OLINDA 2.2.3 for the computation of organ and whole-body absorbed doses, using International Commission on Radiological Protection (ICRP)-103 weighing factors. The ICRP-89 derived male phantom was used for dose estimation. Organs and body mass as defined by ICRP-89 were scaled based on height and mass using patient effective mass.^4 The voiding bladder model as implemented in OLINDA was used to determine bladder TIAC, assuming a voiding interval of 4 hours. The human alimentary tract model (HAT model) described in ICRP 100 and implemented in OLINDA was used to compute doses to the small intestine, right colon, left colon and rectum for patients showing clearance through the GI tract. The fraction of injected activity (fIA) cleared via the GI tract was determined by taking the peak fIA in the GI tract over all the imaging timepoints. […] The Red Marrow mass in L2-L4 was assumed to be 6.7% of the total red marrow mass.

In the case of O=C([O-])CC[C@H](NC(=O)N[C@@H](CCCCNC(=O)CCCCCCC(=O)NCCCC[C@@H](NC(=O)[C@@H](Cc1ccccc1)NC(=O)[C@@H](Cc1ccc(O)c(I)c1)NC(=O)CC[C@H](C(=O)[O-])N1CCN(CC(=O)[O-])CCN(CC(=O)[O-])CCN(CC(=O)[O-])CC1)C(=O)[O-])C(=O)[O-])C(=O)[O-].[177Lu+3].[H+].[H+].[H+].[H+].[H+] [Lu-177 PSMA I&T], the Kidneys absorbed dose (68.9 µg PSMA I&T content) is reported as 0.31 Gy/GBq, the Kidneys absorbed dose (71.6 µg PSMA I&T content) is reported as 0.36 Gy/GBq and the Kidneys absorbed dose (72.1 µg PSMA I&T content) is reported as 0.32 Gy/GBq and 0.54 Gy/GBq. The Kidneys absorbed dose (76.8 µg PSMA I&T content) was 0.23 Gy/GBq, the Kidneys absorbed dose (77.0 µg PSMA I&T content) was 0.28 Gy/GBq and 0.56 Gy/GBq and the Kidneys absorbed dose (77.7 µg PSMA I&T content) was 0.41 Gy/GBq. For the same compound, the Kidneys absorbed dose (79.0 µg PSMA I&T content) was 0.53 Gy/GBq, the Kidneys absorbed dose (79.4 µg PSMA I&T content) was 0.81 Gy/GBq and the Kidneys absorbed dose (79.5 µg PSMA I&T content) was 0.30 Gy/GBq and 0.38 Gy/GBq. It also gave a Kidneys absorbed dose (80.4 µg PSMA I&T content) of 0.24 Gy/GBq, a Kidneys absorbed dose (82.0 µg PSMA I&T content) of 0.17 Gy/GBq and a Kidneys absorbed dose (82.2 µg PSMA I&T content) of 0.34 Gy/GBq. It also gave a Kidneys absorbed dose (82.6 µg PSMA I&T content) of 0.29 Gy/GBq, a Kidneys absorbed dose (85.3 µg PSMA I&T content) of 0.55 Gy/GBq and a Kidneys absorbed dose (89.2 µg PSMA I&T content) of 0.43 Gy/GBq. The Kidneys absorbed dose (90.0 µg PSMA I&T content) was 0.35 Gy/GBq, the Kidneys absorbed dose (92.6 µg PSMA I&T content) was 0.05 Gy/GBq and 0.45 Gy/GBq and the Kidneys absorbed dose (99.2 µg PSMA I&T content) was 0.57 Gy/GBq. It also gave a Kidneys absorbed dose (105.1 µg PSMA I&T content) of 0.48 Gy/GBq, a Kidneys absorbed dose (108.5 µg PSMA I&T content) of 0.27 Gy/GBq and a Kidneys absorbed dose (110.6 µg PSMA I&T content) of 0.64 Gy/GBq. For the same compound, the Kidneys absorbed dose (119.1 µg PSMA I&T content) was 0.28 Gy/GBq, the “Lacrimal Glands absorbed dose” value (72.1 µg PSMA I&T content) was 0.19 Gy/GBq and 0.20 Gy/GBq and the “Lacrimal Glands absorbed dose” value (76.8 µg PSMA I&T content) was 0.08 Gy/GBq. For the same compound, the “Lacrimal Glands absorbed dose” value (77.0 µg PSMA I&T content) was 0.07 Gy/GBq and 0.06 Gy/GBq, the “Lacrimal Glands absorbed dose” value (77.7 µg PSMA I&T content) was 0.66 Gy/GBq and the “Lacrimal Glands absorbed dose” value (79.0 µg PSMA I&T content) was 0.16 Gy/GBq. For the same compound, the “Lacrimal Glands absorbed dose” value (79.4 µg PSMA I&T content) was 0.63 Gy/GBq, the “Lacrimal Glands absorbed dose” value (79.5 µg PSMA I&T content) was 0.26 Gy/GBq and 0.47 Gy/GBq and the “Lacrimal Glands absorbed dose” value (80.4 µg PSMA I&T content) was 0.08 Gy/GBq. For the same compound, the “Lacrimal Glands absorbed dose” value (82.0 µg PSMA I&T content) was 0.07 Gy/GBq, the “Lacrimal Glands absorbed dose” value (82.2 µg PSMA I&T content) was 0.54 Gy/GBq and the “Lacrimal Glands absorbed dose” value (89.2 µg PSMA I&T content) was 0.38 Gy/GBq. The “Lacrimal Glands absorbed dose” value (90.0 µg PSMA I&T content) was 0.09 Gy/GBq, the “Lacrimal Glands absorbed dose” value (92.6 µg PSMA I&T content) was 0.05 Gy/GBq and 0.04 Gy/GBq and the “Lacrimal Glands absorbed dose” value (105.1 µg PSMA I&T content) was 1.19 Gy/GBq. For the same compound, the “Lacrimal Glands absorbed dose” value (108.5 µg PSMA I&T content) was 0.94 Gy/GBq and 1.09 Gy/GBq, the “Lacrimal Glands absorbed dose” value (110.6 µg PSMA I&T content) was 0.68 Gy/GBq and the “Lacrimal Glands absorbed dose” value (119.1 µg PSMA I&T content) was 0.62 Gy/GBq. It also gave a Liver absorbed dose (68.9 µg PSMA I&T content) of 0.04 Gy/GBq, a Liver absorbed dose (71.6 µg PSMA I&T content) of 0.02 Gy/GBq and a Liver absorbed dose (72.1 µg PSMA I&T content) of 0.02 Gy/GBq. The Liver absorbed dose (76.8 µg PSMA I&T content) was 0.03 Gy/GBq, the Liver absorbed dose (77.0 µg PSMA I&T content) was 0.06 Gy/GBq and 0.02 Gy/GBq and the Liver absorbed dose (77.7 µg PSMA I&T content) was 0.04 Gy/GBq. For the same compound, the Liver absorbed dose (79.0 µg PSMA I&T content) was 0.03 Gy/GBq, the Liver absorbed dose (79.4 µg PSMA I&T content) was 0.03 Gy/GBq and the Liver absorbed dose (79.5 µg PSMA I&T content) was 0.03 Gy/GBq and 0.07 Gy/GBq. For the same compound, the Liver absorbed dose (80.4 µg PSMA I&T content) was 0.10 Gy/GBq, the Liver absorbed dose (82.0 µg PSMA I&T content) was 0.05 Gy/GBq and the Liver absorbed dose (82.2 µg PSMA I&T content) was 0.02 Gy/GBq. For the same compound, the Liver absorbed dose (82.6 µg PSMA I&T content) was 0.02 Gy/GBq, the Liver absorbed dose (85.3 µg PSMA I&T content) was 0.02 Gy/GBq and the Liver absorbed dose (89.2 µg PSMA I&T content) was 0.08 Gy/GBq. The Liver absorbed dose (90.0 µg PSMA I&T content) was 0.04 Gy/GBq, the Liver absorbed dose (92.6 µg PSMA I&T content) was 0.09 Gy/GBq and 0.01 Gy/GBq and the Liver absorbed dose (99.2 µg PSMA I&T content) was 0.04 Gy/GBq. For the same compound, the Liver absorbed dose (105.1 µg PSMA I&T content) was 0.06 Gy/GBq, the Liver absorbed dose (108.5 µg PSMA I&T content) was 0.07 Gy/GBq and 0.05 Gy/GBq and the Liver absorbed dose (110.6 µg PSMA I&T content) was 0.03 Gy/GBq. For the same compound, the Liver absorbed dose (119.1 µg PSMA I&T content) was 0.02 Gy/GBq, the “Salivary Glands absorbed dose” value (68.9 µg PSMA I&T content) was 0.11 Gy/GBq and the “Salivary Glands absorbed dose” value (71.6 µg PSMA I&T content) was 0.16 Gy/GBq. The “Salivary Glands absorbed dose” value (72.1 µg PSMA I&T content) was 0.06 Gy/GBq and 0.00 Gy/GBq, the “Salivary Glands absorbed dose” value (76.8 µg PSMA I&T content) was 0.11 Gy/GBq and the “Salivary Glands absorbed dose” value (77.0 µg PSMA I&T content) was 0.19 Gy/GBq and 0.10 Gy/GBq. The “Salivary Glands absorbed dose” value (77.7 µg PSMA I&T content) was 0.04 Gy/GBq, the “Salivary Glands absorbed dose” value (79.0 µg PSMA I&T content) was 0.15 Gy/GBq and the “Salivary Glands absorbed dose” value (79.4 µg PSMA I&T content) was 0.12 Gy/GBq. For the same compound, the “Salivary Glands absorbed dose” value (79.5 µg PSMA I&T content) was 0.26 Gy/GBq and 0.19 Gy/GBq, the “Salivary Glands absorbed dose” value (80.4 µg PSMA I&T content) was 0.20 Gy/GBq and the “Salivary Glands absorbed dose” value (82.0 µg PSMA I&T content) was 0.32 Gy/GBq. For the same compound, the “Salivary Glands absorbed dose” value (82.2 µg PSMA I&T content) was 0.03 Gy/GBq, the “Salivary Glands absorbed dose” value (82.6 µg PSMA I&T content) was 0.16 Gy/GBq and the “Salivary Glands absorbed dose” value (85.3 µg PSMA I&T content) was 0.09 Gy/GBq. For the same compound, the “Salivary Glands absorbed dose” value (89.2 µg PSMA I&T content) was 0.39 Gy/GBq, the “Salivary Glands absorbed dose” value (90.0 µg PSMA I&T content) was 0.80 Gy/GBq and the “Salivary Glands absorbed dose” value (92.6 µg PSMA I&T content) was 0.13 Gy/GBq and 0.14 Gy/GBq. For the same compound, the “Salivary Glands absorbed dose” value (99.2 µg PSMA I&T content) was 0.27 Gy/GBq, the “Salivary Glands absorbed dose” value (105.1 µg PSMA I&T content) was 0.18 Gy/GBq and the “Salivary Glands absorbed dose” value (108.5 µg PSMA I&T content) was 0.29 Gy/GBq and 0.10 Gy/GBq. The “Salivary Glands absorbed dose” value (110.6 µg PSMA I&T content) was 0.03 Gy/GBq and the “Salivary Glands absorbed dose” value (119.1 µg PSMA I&T content) was 0.28 Gy/GBq.
